# Source: ChEMBL document CHEMBL1146680, “A highly toxic morphine-3-glucuronide derivative” (Bioorg Med Chem Lett, 2004)
# The source made the active and inactive calls. The calls are words filed in the database; no cut-off is given here.
# Legend:
# Rattus norvegicus [1] = assay: Opioid agonist activity by measuring the analgesia produced after 1 mg/kg administration in rats; none; type: functional, organism-based; parameters: dose 1 mg/kg
# Rattus norvegicus [2] = assay: Opioid agonist activity by measuring the analgesia produced after 10 mg/kg administration in rats; none; type: functional, organism-based; parameters: dose 10 mg/kg
# Rattus norvegicus [3] = assay: Opioid agonist activity by measuring the analgesia produced after 5 mg/kg administration in rats; none; type: functional, organism-based; parameters: dose 5 mg/kg
# Rattus norvegicus [4] = assay: Analgesic effect on rats after 30 mins of 5 mg/kg administration; value ranges from 60-70%; type: functional
# Rattus norvegicus [5] = assay: Opioid antagonist activity (1 mg/kg, peripherally) was determined by measuring the analgesia produced by morphine given 20 mins (after the compound) at a dose of 5 mg/kg; no effect; type: functional, organism-based; parameters: dose 5 mg/kg
# Rattus norvegicus [6] = assay: Opioid antagonist activity (30 mg/kg, peripherally) was determined by measuring the analgesia produced by morphine given 10 mins (after the compound) at a dose of 5 mg/kg; no effect; type: functional, organism-based; parameters: dose 5 mg/kg
# Rattus norvegicus [7] = assay: Opioid antagonist activity (5 mg/kg, peripherally) was determined by measuring the analgesia produced by morphine given 10 mins (after the compound) at a dose of 5 mg/kg; no effect; type: functional, organism-based; parameters: dose 5 mg/kg
# Rattus norvegicus [8] = assay: Inhibition of analgesia by (5 mg/kg) administered 10 min after morphine (5 mg/kg); inhibited; type: functional, organism-based
# Rattus norvegicus [9] = assay: Effect after 1 mg/kg i.p. administration was measured by rat paw pressure test; no analgesia observed; type: functional, organism-based; parameters: dose 1 mg/kg
# Rattus norvegicus [10] = assay: Effect after 1 mg/kg i.p. administration was measured by rat tail flick test; no analgesia observed; type: functional, organism-based; parameters: dose 1 mg/kg
# Rattus norvegicus [11] = assay: Effect after 10 mg/kg i.p. administration was measured by rat paw pressure test; no analgesia observed; type: functional, organism-based; parameters: dose 10 mg/kg
# Rattus norvegicus [12] = assay: Effect after 10 mg/kg i.p. administration was measured by rat tail flick test; no analgesia observed; type: functional, organism-based; parameters: dose 10 mg/kg
# Rattus norvegicus [13] = assay: Effect after 5 mg/kg i.p. administration was measured by rat paw pressure test; no analgesia observed; type: functional, organism-based; parameters: dose 5 mg/kg
# Rattus norvegicus [14] = assay: Effect after 5 mg/kg i.p. administration was measured by rat tail flick test; no analgesia observed; type: functional, organism-based; parameters: dose 5 mg/kg
# Rattus norvegicus [15] = assay: Opioid antagonist activity (1 mg/kg, peripherally) was determined by measuring the analgesia produced by morphine given 10 mins (after the compound) at a dose of 5 mg/kg; no effect; type: functional, organism-based; parameters: dose 5 mg/kg
# Mus musculus [16] = assay: Effect after 1 ng/kg i.p. administration was measured by mice paw pressure test; no analgesia observed; type: functional, organism-based
# Mus musculus [17] = assay: Effect after 1 ng/kg i.p. administration was measured by mice tail flick test; no analgesia observed; type: functional, organism-based
# Rattus norvegicus [18] = assay: Reversion of toxic effect (1 ng/kg) by naloxone given 10 mins (after the compound) at a dose of 1 mg/kg; no improvement in survival observed; type: organism-based; parameters: dose 1 mg/kg; settings: in vivo
# Rattus norvegicus [19] = assay: Reversion of toxic effect (1 ng/kg) by naloxone given 10 mins (after the compound) at a dose of 10 mg/kg; no improvement in survival observed; type: ADME, organism-based; parameters: dose 10 mg/kg; settings: in vivo
# Rattus norvegicus [20] = assay: Reversion of toxic effect (1 ng/kg) by naloxone given 10 mins (after the compound) at a dose of 5 mg/kg; no improvement in survival observed; type: ADME, organism-based; parameters: dose 5 mg/kg; settings: in vivo
# Rattus norvegicus [21] = assay: Reversion of toxic effect (1 ng/kg) by naloxone given 10 mins (before the compound) at a dose of 1 mg/kg; no improvement in survival observed; type: organism-based; parameters: dose 1 mg/kg; settings: in vivo
# Rattus norvegicus [22] = assay: Reversion of toxic effect (1 ng/kg) by naloxone given 10 mins (before the compound) at a dose of 10 mg/kg; no improvement in survival observed; type: ADME, organism-based; parameters: dose 10 mg/kg; settings: in vivo
# Rattus norvegicus [23] = assay: Reversion of toxic effect (1 ng/kg) by naloxone given 10 mins (before the compound) at a dose of 5 mg/kg; no improvement in survival observed; type: ADME, organism-based; parameters: dose 5 mg/kg; settings: in vivo
# Rattus norvegicus [24] = assay: Reversion of toxic effect (1 ng/kg) by naloxone given 15 mins (after the compound) at a dose of 1 mg/kg; no improvement in survival observed; type: organism-based; parameters: dose 1 mg/kg; settings: in vivo, 0.25 h
# Rattus norvegicus [25] = assay: Reversion of toxic effect (1 ng/kg) by naloxone given 15 mins (after the compound) at a dose of 10 mg/kg; no improvement in survival observed; type: ADME, organism-based; parameters: dose 10 mg/kg; settings: in vivo, 0.25 h
# Rattus norvegicus [26] = assay: Reversion of toxic effect (1 ng/kg) by naloxone given 15 mins (after the compound) at a dose of 5 mg/kg; no improvement in survival observed; type: ADME, organism-based; parameters: dose 5 mg/kg; settings: in vivo, 0.25 h
# Rattus norvegicus [27] = assay: Reversion of toxic effect (1 ng/kg) by naloxone given 15 mins (before the compound) at a dose of 1 mg/kg; no improvement in survival observed; type: organism-based; parameters: dose 1 mg/kg; settings: in vivo, 0.25 h
# Rattus norvegicus [28] = assay: Reversion of toxic effect (1 ng/kg) by naloxone given 15 mins (before the compound) at a dose of 10 mg/kg; no improvement in survival observed; type: organism-based; parameters: dose 10 mg/kg; settings: in vivo, 0.25 h
# Rattus norvegicus [29] = assay: Reversion of toxic effect (1 ng/kg) by naloxone given 15 mins (before the compound) at a dose of 5 mg/kg; no improvement in survival observed; type: ADME, organism-based; parameters: dose 5 mg/kg; settings: in vivo, 0.25 h
# Rattus norvegicus [30] = assay: Reversion of toxic effect (1 ng/kg) by naloxone given 20 mins (after the compound) at a dose of 1 mg/kg; no improvement in survival observed; type: ADME, organism-based; parameters: dose 1 mg/kg; settings: in vivo
# Rattus norvegicus [31] = assay: Reversion of toxic effect (1 ng/kg) by naloxone given 20 mins (after the compound) at a dose of 10 mg/kg; no improvement in survival observed; type: ADME, organism-based; parameters: dose 10 mg/kg; settings: in vivo
# Rattus norvegicus [32] = assay: Reversion of toxic effect (1 ng/kg) by naloxone given 20 mins (before the compound) at a dose of 1 mg/kg; no improvement in survival observed; type: organism-based; parameters: dose 1 mg/kg; settings: in vivo
# Rattus norvegicus [33] = assay: Reversion of toxic effect (1 ng/kg) by naloxone given 20 mins (before the compound) at a dose of 10 mg/kg; no improvement in survival observed; type: ADME, organism-based; parameters: dose 10 mg/kg; settings: in vivo
# Rattus norvegicus [34] = assay: Reversion of toxic effect (1 ng/kg) by naloxone given 20 mins (before the compound) at a dose of 5 mg/kg; no improvement in survival observed; type: ADME, organism-based; parameters: dose 5 mg/kg; settings: in vivo
# Rattus norvegicus [35] = assay: Reversion of toxic effect (1 ng/kg) by naloxone given 30 mins (after the compound) at a dose of 1 mg/kg; no improvement in survival observed; type: ADME, organism-based; parameters: dose 1 mg/kg; settings: in vivo, 0.5 h
# Rattus norvegicus [36] = assay: Reversion of toxic effect (1 ng/kg) by naloxone given 30 mins (after the compound) at a dose of 10 mg/kg; no improvement in survival observed; type: organism-based; parameters: dose 10 mg/kg; settings: in vivo, 0.5 h
# Rattus norvegicus [37] = assay: Reversion of toxic effect (1 ng/kg) by naloxone given 30 mins (after the compound) at a dose of 5 mg/kg; no improvement in survival observed; type: ADME, organism-based; parameters: dose 5 mg/kg; settings: in vivo, 0.5 h
# Rattus norvegicus [38] = assay: Effect on rats after 30 mins of 0.005 mg/kg administration; death observed; type: ADME, organism-based; parameters: dose 0.005 mg/kg; settings: in vivo, 0.5 h
# Rattus norvegicus [39] = assay: Effect on rats after 30 mins of 0.5 mg/kg administration; death observed; type: ADME, organism-based; parameters: dose 0.5 mg/kg; settings: in vivo, 0.5 h
# Rattus norvegicus [40] = assay: Effect on rats after 30 mins of 1 mg/kg administration; death observed; type: ADME, organism-based; parameters: dose 1 mg/kg; settings: in vivo, 0.5 h
# Rattus norvegicus [41] = assay: Effect on rats after 30 mins of 1 ng/kg administration; death observed; type: ADME, organism-based; settings: in vivo, 1e-06 mg/kg, 0.5 h
# Rattus norvegicus [42] = assay: Effect on rats after 30 mins of 2.5 mg/kg administration; death observed; type: ADME, organism-based; parameters: dose 2.5 mg/kg; settings: in vivo, 0.5 h
# Rattus norvegicus [43] = assay: Effect on rats after 30 mins of 5 mg/kg administration; death observed; type: ADME, organism-based; parameters: dose 5 mg/kg; settings: in vivo, 0.5 h
# Rattus norvegicus [44] = assay: Effect on rats after 30 mins of 0.05 mg/kg administration; death observed; type: ADME, organism-based; parameters: dose 0.05 mg/kg; settings: in vivo, 0.5 h
# Rattus norvegicus [45] = assay: Reversion of toxic effect (1 ng/kg) by naloxone given 20 mins (after the compound) at a dose of 5 mg/kg; no improvement in survival observed; type: organism-based; parameters: dose 5 mg/kg; settings: in vivo
structure (smiles),measurement,setting,value
CN1CC[C@]23c4c5ccc(O[C@@H]6O[C@H](C(=O)O)[C@@H](O)[C@H](O)[C@H]6O)c4O[C@H]2[C@@H](O)C=C[C@H]3[C@H]1C5 (stereo in doubt; form 2),Activity,Rattus norvegicus [1],inactive
same,Activity,Rattus norvegicus [2],inactive
same,Activity,Rattus norvegicus [3],inactive
CN1CC[C@]23c4c5ccc(O)c4O[C@H]2[C@@H](O)C=C[C@H]3[C@H]1C5 [MORPHINE],Effect,Rattus norvegicus [4],70%
CN1CC[C@]23c4c5ccc(O[C@@H]6O[C@H](C(=O)O)[C@@H](O)[C@H](O)[C@H]6O)c4O[C@H]2[C@@H](O)C=C[C@H]3[C@H]1C5 (stereo in doubt; form 1),Activity,Rattus norvegicus [5],inactive
same,Activity,Rattus norvegicus [6],inactive
same,Activity,Rattus norvegicus [7],inactive
same,Activity,Rattus norvegicus [1],inactive
same,Activity,Rattus norvegicus [2],inactive
same,Activity,Rattus norvegicus [3],inactive
CN1CC[C@]23c4c5ccc(OC6OC(C(N)=O)C(O)C(O)C6O)c4O[C@H]2[C@@H](O)C=C[C@H]3[C@H]1C5 (stereo not given in full),Activity,Rattus norvegicus [8],inhibited
same,Effect,Rattus norvegicus [9],no analgesia observed
same,Effect,Rattus norvegicus [10],no analgesia observed
same,Effect,Rattus norvegicus [11],no analgesia observed
same,Effect,Rattus norvegicus [12],no analgesia observed
same,Effect,Rattus norvegicus [13],no analgesia observed
same,Effect,Rattus norvegicus [14],no analgesia observed
C=CCN1CC[C@]23c4c5ccc(O)c4O[C@H]2C(=O)CC[C@@]3(O)[C@H]1C5,Activity,Rattus norvegicus [15],inactive
same,Activity,Rattus norvegicus [6],inactive
same,Activity,Rattus norvegicus [7],inactive
CCCCCCCCNC(=O)C1OC(Oc2ccc3c4c2O[C@H]2[C@@H](O)C=C[C@H]5[C@@H](C3)N(C)CC[C@@]452)C(O)C(O)C1O (stereo not given in full),Effect,Mus musculus [16],Death
same,Effect,Mus musculus [17],Death
same,Activity,Rattus norvegicus [18],no improvement in survival
same,Activity,Rattus norvegicus [19],no improvement in survival
same,Activity,Rattus norvegicus [20],no improvement in survival
same,Activity,Rattus norvegicus [21],no improvement in survival
same,Activity,Rattus norvegicus [22],no improvement in survival
same,Activity,Rattus norvegicus [23],no improvement in survival
same,Activity,Rattus norvegicus [24],no improvement in survival
same,Activity,Rattus norvegicus [25],no improvement in survival
same,Activity,Rattus norvegicus [26],no improvement in survival
same,Activity,Rattus norvegicus [27],no improvement in survival
same,Activity,Rattus norvegicus [28],no improvement in survival
same,Activity,Rattus norvegicus [29],no improvement in survival
same,Activity,Rattus norvegicus [30],no improvement in survival
same,Activity,Rattus norvegicus [31],no improvement in survival
same,Activity,Rattus norvegicus [32],no improvement in survival
same,Activity,Rattus norvegicus [33],no improvement in survival
same,Activity,Rattus norvegicus [34],no improvement in survival
same,Activity,Rattus norvegicus [35],no improvement in survival
same,Activity,Rattus norvegicus [36],no improvement in survival
same,Activity,Rattus norvegicus [37],no improvement in survival
same,Effect,Rattus norvegicus [38],Death
same,Effect,Rattus norvegicus [39],Death
same,Effect,Rattus norvegicus [40],Death
same,Effect,Rattus norvegicus [41],Death
same,Effect,Rattus norvegicus [42],Death
same,Effect,Rattus norvegicus [43],Death
same,Effect,Rattus norvegicus [44],Death
same,Activity,Rattus norvegicus [45],no improvement in survival
